Measured values from patent publication US10544150B2, “NK-3 receptor selective antagonist compounds, pharmaceutical composition and methods for use in NK-3 receptors mediated disorders” (Ogeda SA, priority 2010, dated 2020).
pKi: −log10 of the molar value.

Target: human NK-3 receptor (Homo sapiens (Human), UniProt P29371)
Experiment: 3H-SB222200 binding competition assay with human NK-3 receptor
Conditions: 3H-SB222200 displacement, CHO cell membranes expressing human NK3 receptor; read-out: Ki range
In short: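 Membranes from CHO cells expressing human NK3 receptor incubated with 5 nM 3H-SB222200 and test compound in HEPES 25 mM/NaCl 0.1M/CaCl2 1 mM/MgCl2 5 mM/BSA 0.5%/saponin 10 μg/ml, pH 7.4. Bound radioligand counted after filtration; Ki calculated, reported in bands (+++ <500 nM to # >5 μM).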

Chain of human NK-3 receptor (P29371 whole entry): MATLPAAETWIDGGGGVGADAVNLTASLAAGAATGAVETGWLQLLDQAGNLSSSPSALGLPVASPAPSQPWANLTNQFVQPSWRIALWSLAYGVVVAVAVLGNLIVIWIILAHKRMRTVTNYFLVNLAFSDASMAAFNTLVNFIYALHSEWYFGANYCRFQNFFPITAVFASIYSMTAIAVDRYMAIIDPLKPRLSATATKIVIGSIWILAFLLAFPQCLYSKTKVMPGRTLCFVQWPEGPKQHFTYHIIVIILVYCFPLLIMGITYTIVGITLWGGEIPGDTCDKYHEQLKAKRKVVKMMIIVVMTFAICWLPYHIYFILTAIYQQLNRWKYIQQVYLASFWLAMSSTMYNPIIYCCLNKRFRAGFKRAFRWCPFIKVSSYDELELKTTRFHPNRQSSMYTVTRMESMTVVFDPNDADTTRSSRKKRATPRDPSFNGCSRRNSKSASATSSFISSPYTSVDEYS

Row | SMILES | pKi
1 | Cn1nc(-c2ccccc2)cc1-c1nnc2n1CCN(C(=O)c1ccc(F)cc1)C2 [Compound 225, (4-fluorophenyl)(3-(1-methyl-3-phenyl-1H-pyrazol-5-yl)-5,6-dihydro-[1,2,4]triazolo[4,3-a]pyrazin-7(8H)-yl)methanone] | 5.30 to 6.00
2 | O=C(c1ccc(-c2cccs2)cc1)N1CCn2c(nnc2-c2csc(-c3ncccn3)n2)C1 [Compound 226, (3-(2-(pyrimidin-2-yl)thiazol-4-yl)-5,6-dihydro-[1,2,4]triazolo[4,3-a]pyrazin-7(8H)-yl)(4-(thiophen-2-yl)phenyl)methanone] | < 5.30
3 | C[C@H]1c2nnc(-c3csc(N4CCOCC4)n3)n2CCN1C(=O)c1ccc(-c2cccs2)cc1 [Compound 227, (S)-(8-methyl-3-(2-morpholinothiazol-4-yl)-5,6-dihydro-[1,2,4]triazolo[4,3-a]pyrazin-7(8H)-yl)(4-(thiophen-2-yl)phenyl)methanone] | 6.00 to 6.30
4 | O=C(c1ccc(F)cc1)N1CCn2c(nnc2-c2csc(-c3ccccn3)n2)C1 [Compound 230, (4-fluorophenyl)(3-(2-(pyridin-2-yl)thiazol-4-yl)-5,6-dihydro-[1,2,4]triazolo[4,3-a]pyrazin-7(8H)-yl)methanone] | 5.30 to 6.00
5 | O=C(c1ccccc1)N1CCn2c(nnc2-c2ccccn2)C1 [Compound 231, phenyl(3-(pyridin-2-yl)-5,6-dihydro-[1,2,4]triazolo[4,3-a]pyrazin-7(8H)-yl)methanone] | 5.30 to 6.00
6 | Cc1ccc(C(=O)N2CCn3c(nnc3-c3ccccn3)C2)cc1 [Compound 232, (3-(pyridin-2-yl)-5,6-dihydro-[1,2,4]triazolo[4,3-a]pyrazin-7(8H)-yl)(p-tolyl)methanone] | 5.30 to 6.00
7 | O=C(c1ccc(-c2cccs2)cc1)N1CCn2c(nnc2-c2csc(-c3ccc(N4CCOCC4)cc3)n2)C1 [Compound 239, (3-(2-(4-morpholinophenyl)thiazol-4-yl)-5,6-dihydro-[1,2,4]triazolo[4,3-a]pyrazin-7(8H)-yl)(4-(thiophen-2-yl)phenyl)methanone] | 5.30 to 6.00
8 | O=C(c1ccc(F)cc1)N1CCn2c(nnc2-c2csc(-c3ccc(N4CCOCC4)cc3)n2)C1 [Compound 240, (4-fluorophenyl)(3-(2-(4-morpholinophenyl)thiazol-4-yl)-5,6-dihydro-[1,2,4]triazolo[4,3-a]pyrazin-7(8H)-yl)methanone] | 6.00 to 6.30
9 | CN1CCN(c2ccc(-c3nc(-c4nnc5n4CCN(C(=O)c4ccc(F)cc4)C5)cs3)cc2)CC1 [Compound 242, (4-fluorophenyl)(3-(2-(4-(4-methylpiperazin-1-yl)phenyl)thiazol-4-yl)-5,6-dihydro-[1,2,4]triazolo[4,3-a]pyrazin-7(8H)-yl)methanone] | 6.00 to 6.30
10 | O=C(c1ccc(F)cc1)N1CCn2c(nnc2-c2csc(-c3ccc(N4CCCCC4)cc3)n2)C1 [Compound 244, (4-fluorophenyl)(3-(2-(4-(piperidin-1-yl)phenyl)thiazol-4-yl)-5,6-dihydro-[1,2,4]triazolo[4,3-a]pyrazin-7(8H)-yl)methanone] | 6.00 to 6.30
11 | O=C(c1ccc(-c2cccs2)cc1)N1CCn2c(nnc2-c2csc(N3CCCC3)n2)C1 [Compound 248, (3-(2-(pyrrolidin-1-yl)thiazol-4-yl)-5,6-dihydro-[1,2,4]triazolo[4,3-a]pyrazin-7(8H)-yl)(4-(thiophen-2-yl)phenyl)methanone] | > 6.30
12 | O=C(c1ccc(F)cc1)N1CCn2c(nnc2-c2csc(N3CCCC3)n2)C1 [Compound 249, (4-fluorophenyl)(3-(2-(pyrrolidin-1-yl)thiazol-4-yl)-5,6-dihydro-[1,2,4]triazolo[4,3-a]pyrazin-7(8H)-yl)methanone] | > 6.30
13 | CN1CCN(c2nc(-c3nnc4n3CCN(C(=O)c3ccc(-c5cccs5)cc3)C4)cs2)CC1 [Compound 250, (3-(2-(4-methylpiperazin-1-yl)thiazol-4-yl)-5,6-dihydro-[1,2,4]triazolo[4,3-a]pyrazin-7(8H)-yl)(4-(thiophen-2-yl)phenyl)methanone] | 6.00 to 6.30
14 | Cn1cc(-c2nnc3n2CCN(C(=O)c2ccc(-c4cccs4)cc2)C3)nc1-c1ccccc1 [Compound 252, (3-(1-methyl-2-phenyl-1H-imidazol-4-yl)-5,6-dihydro-[1,2,4]triazolo[4,3-a]pyrazin-7(8H)-yl)(4-(thiophen-2-yl)phenyl)methanone] | 6.00 to 6.30
15 | CN(C)c1ccc(C(=O)N2CCn3c(nnc3-c3csc(-c4ccc(F)cc4)n3)C2)cc1 [Compound 253, (4-(dimethylamino)phenyl)(3-(2-(4-fluorophenyl)thiazol-4-yl)-5,6-dihydro-[1,2,4]triazolo[4,3-a]pyrazin-7(8H)-yl)methanone] | 6.00 to 6.30
16 | COCCn1nc(-c2ccccc2)cc1-c1nnc2n1CCN(C(=O)c1ccc(-c3cccs3)cc1)C2 [Compound 254, (3-(1-(2-methoxyethyl)-3-phenyl-1H-pyrazol-5-yl)-5,6-dihydro-[1,2,4]triazolo[4,3-a]pyrazin-7(8H)-yl)(4-(thiophen-2-yl)phenyl)methanone] | > 6.30
17 | COCCn1nc(-c2ccccc2)cc1-c1nnc2n1CCN(C(=O)c1ccc(F)cc1)C2 [Compound 255, (4-fluorophenyl)(3-(1-(2-methoxyethyl)-3-phenyl-1H-pyrazol-5-yl)-5,6-dihydro-[1,2,4]triazolo[4,3-a]pyrazin-7(8H)-yl)methanone] | 6.00 to 6.30
18 | CC(C)Cc1nc(-c2nnc3n2CCN(C(=O)c2ccc(-c4cccs4)cc2)C3)cs1 [Compound 256, (3-(2-isobutylthiazol-4-yl)-5,6-dihydro-[1,2,4]triazolo[4,3-a]pyrazin-7(8H)-yl)(4-(thiophen-2-yl)phenyl)methanone] | > 6.30
19 | COCCC1CN(c2nc(-c3nnc4n3CCN(C(=O)c3ccc(-c5cccs5)cc3)C4)cs2)CCO1 (stereo not shown) [Compound 257, (3-(2-(2-(2-methoxyethyl)morpholino)thiazol-4-yl)-5,6-dihydro-[1,2,4]triazolo[4,3-a]pyrazin-7(8H)-yl)(4-(thiophen-2-yl)phenyl)methanone] | > 6.30
20 | O=C(c1ccc(F)cc1)N1CCn2c(nnc2-c2csc(N3CCC(F)(F)CC3)n2)C1 [Compound 258, (3-(2-(4,4-difluoropiperidin-1-yl)thiazol-4-yl)-5,6-dihydro-[1,2,4]triazolo[4,3-a]pyrazin-7(8H)-yl)(4-fluorophenyl)methanone] | > 6.30

Second part, the compound after the results:

Row | pKi | SMILES
21 | > 6.30 | O=C(c1ccc(-c2cccs2)cc1)N1CCn2c(nnc2-c2csc(-c3ccncc3)n2)C1 [Compound 228, (3-(2-(pyridin-4-yl)thiazol-4-yl)-5,6-dihydro-[1,2,4]triazolo[4,3-a]pyrazin-7(8H)-yl)(4-(thiophen-2-yl)phenyl)methanone]
22 | > 6.30 | CN(C)c1ccc(-c2nc(-c3nnc4n3CCN(C(=O)c3ccc(-c5cccs5)cc3)C4)cs2)cc1 [Compound 229, (3-(2-(4-(dimethylamino)phenyl)thiazol-4-yl)-5,6-dihydro-[1,2,4]triazolo[4,3-a]pyrazin-7(8H)-yl)(4-(thiophen-2-yl)phenyl)methanone]
23 | > 6.30 | Cc1sccc1-c1ccc(C(=O)N2CCn3c(-c4csc(-c5ccc(F)cc5)n4)nnc3[C@@H]2C)cc1 [Compound 233, (S)-(3-(2-(4-fluorophenyl)thiazol-4-yl)-8-methyl-5,6-dihydro-[1,2,4]triazolo[4,3-a]pyrazin-7(8H)-yl)(4-(2-methylthiophen-3-yl)phenyl)methanone]
24 | > 6.30 | Cc1sccc1-c1ccc(C(=O)N2CCn3c(-c4csc(-c5ccc(F)cc5)n4)nnc3[C@H]2C)cc1 [Compound 234, (R)-(3-(2-(4-fluorophenyl)thiazol-4-yl)-8-methyl-5,6-dihydro-[1,2,4]triazolo[4,3-a]pyrazin-7(8H)-yl)(4-(2-methylthiophen-3-yl)phenyl)methanone]
25 | > 6.30 | O=C(c1ccc(-c2cccs2)cc1)N1CCn2c(nnc2-c2csc(-c3cnccn3)n2)C1 [Compound 235, (3-(2-(pyrazin-2-yl)thiazol-4-yl)-5,6-dihydro-[1,2,4]triazolo[4,3-a]pyrazin-7(8H)-yl)(4-(thiophen-2-yl)phenyl)methanone]
26 | > 6.30 | N#Cc1ccc(-c2nc(-c3nnc4n3CCN(C(=O)c3ccc(-c5cccs5)cc3)C4)cs2)cc1 [Compound 236, 4-(4-(7-(4-(thiophen-2-yl)benzoyl)-5,6,7,8-tetrahydro-[1,2,4]triazolo[4,3-a]pyrazin-3-yl)thiazol-2-yl)benzonitrile]
27 | > 6.30 | Cn1nc(-c2nnc3n2CCN(C(=O)c2ccc(F)cc2)C3)cc1-c1ccccc1 [Compound 238, (4-fluorophenyl)(3-(1-methyl-5-phenyl-1H-pyrazol-3-yl)-5,6-dihydro-[1,2,4]triazolo[4,3-a]pyrazin-7(8H)-yl)methanone]
28 | > 6.30 | CN1CCN(c2ccc(-c3nc(-c4nnc5n4CCN(C(=O)c4ccc(-c6cccs6)cc4)C5)cs3)cc2)CC1 [Compound 241, (3-(2-(4-(4-methylpiperazin-1-yl)phenyl)thiazol-4-yl)-5,6-dihydro-[1,2,4]triazolo[4,3-a]pyrazin-7(8H)-yl)(4-(thiophen-2-yl)phenyl)methanone]
29 | > 6.30 | O=C(c1ccc(-c2cccs2)cc1)N1CCn2c(nnc2-c2csc(-c3ccc(N4CCCC4)cc3)n2)C1 [Compound 245, (3-(2-(4-(pyrrolidin-1-yl)phenyl)thiazol-4-yl)-5,6-dihydro-[1,2,4]triazolo[4,3-a]pyrazin-7(8H)-yl)(4-(thiophen-2-yl)phenyl)methanone]
30 | > 6.30 | O=C(c1ccc(F)cc1)N1CCn2c(nnc2-c2csc(-c3ccc(N4CCCC4)cc3)n2)C1 [Compound 246, (4-fluorophenyl)(3-(2-(4-(pyrrolidin-1-yl)phenyl)thiazol-4-yl)-5,6-dihydro-[1,2,4]triazolo[4,3-a]pyrazin-7(8H)-yl)methanone]
31 | > 6.30 | O=C(c1ccc(-c2cccs2)cc1)N1CCn2c(nnc2-c2csc(N3CCCCC3)n2)C1 [Compound 247, (3-(2-(piperidin-1-yl)thiazol-4-yl)-5,6-dihydro-[1,2,4]triazolo[4,3-a]pyrazin-7(8H)-yl)(4-(thiophen-2-yl)phenyl)methanone]
